Experimental data published in ChEMBL document CHEMBL2375234, “Rhazinilam-Leuconolam-Leuconoxine Alkaloids from Leuconotis griffithii” (J Nat Prod, 2013).
Converted amounts (≈) assume the structure as drawn.

Legend:
[1] = Inhibition of p-gp in multidrug-resistant human KB cells assessed as increase in vincristine-mediated cytotoxicity; type: cell-based
KB = assay: Cytotoxicity against human KB cells; type: functional, cell-based

SMILES | IC50 [1] [µg/mL] | IC50 (KB) [µg/mL]
CC[C@@]12CCCN3CC[C@@]4(O)c5ccccc5N(C(=O)CC1)C324 (some centres undefined) | 9.34 (≈ 29.9 µM) | 
CC[C@@]12CCCN3CC[C@H]4c5ccccc5N(C(=O)CC1)C432 (some centres undefined) |  | 12 (≈ 40.5 µM)
CC[C@@]12CCCN3C(=O)C[C@@]4(O)c5ccccc5N(C(=O)CC1)C324 (some centres undefined) |  | 12 (≈ 36.8 µM)
CC[C@@]12CCC(=O)Nc3ccccc3-c3ccn(c31)C(=O)C2 [NOR-RHAZINICINE] |  | 12 (≈ 40.8 µM)
